This assay concerns primary rat microglia. The experiment in a line: Inhibition of microglia activation (Aβ-peptide stimulation, MTS reduction). It is filed as cell-based. Particulars: Aβ-peptide-activated primary rat microglia, compound added day 5, MTS reduction on day 7, relative to DMSO control. The method, then:
For in vitro production of Aβ-activated microglia, primary rat microglia with synthetic Aβ-peptide are incubated:
For simulation of Aβ deposits, synthetic Aβ peptide is dried on 96-hole tissue culture plates. A peptide stock solution is diluted by 2 mg/ml of H2O 1:50 in H2O. To coat the 96-hole plates, 30 μl of this dilute peptide solution/hole is used, and it is dried overnight at room temperature.
Primary rat microglia are harvested by mixed glia cultures, which were obtained from P3 rat brains. In the production of mixed glia cultures, the brains are taken from 3-day-old rats, and meninges are removed. The isolation of cells is achieved by trypsinization (0.25% trypsin solution, 15 minutes, 37° C.)). After undigested tissue fragments are separated with the aid of a 40 μm nylon mesh, the isolated cells are centrifuged off (800 rpm/10 minutes). The cell pellet is resuspended in the culture medium and moved into 100 ml tissue culture flasks (1 brain/tissue culture flask). […]
To quantify the microglia reactivity, the metabolic activity is measured on cultivation day 7 via the reduction of MTS (3-(4,5-dimethylthiazol-2-yl)-5-(3-carboxymethoxyphenyl)-2-(sulfophenyl)-2H-tetrazolium), Owen's reagent, Baltrop, J. A. et al. Bioorg. & Med. Chem. Lett., 1, 6111 (1991)). […]
(In general: Formazan colour is commonly taken as a measure of viable cells.)

For `COC(=O)CCCCCOc1ccc2nc(N3CCOCC3)n(-c3ccccc3)c2c1` [Example 15, 6-[[2-(Morpholin-4-yl)-1-phenyl-1H-benzimidazol-6-yl]oxy]hexanoic acid methyl ester], half-maximal inhibition (IC50) required 870 nM.
The result for `COC(=O)CCCCCOc1ccc2nc(S(=O)(=O)Cc3ccccc3)n(-c3ccc(C)cc3)c2c1` [Example 9, 6-[[1-(4-Methylphenyl)-2-(phenylmethanesulfonyl)-1H-benzimidazol-6-yl]oxy]hexanoic acid methyl ester] reads 460 nM.

(Values after patent US6903126B2, “1-Aryl-2-N-, S- or O-substituted benzimidazole derivatives, their use for the production of pharmaceutical agents as well as pharmaceutical preparations that contain these derivatives” (Schering AG, priority 2001, dated 2005).)
